Experimental findings from ChEMBL document CHEMBL2057164, “Head-to-head prenyl tranferases: anti-infective drug targets” (J Med Chem, 2012) are described below.

A short description of the experiment: Inhibition of Trypanosoma cruzi squalene synthase.

Broadly, the Ki is a dissociation constant, usually derived from enzyme kinetics or from competition with a known ligand. A higher Ki goes with lower affinity. Compound `CC(C)=CCC/C(C)=C/CNCCNC1C2CC3CC(C2)CC1C3` (stereo unspecified) [SQ109] came in with a Ki of 1200 nM.
